Assay results from US20260053767A1, “Hepatoprotective Compositions And Methods” (Jemyll, Ltd., priority 2022, published 2026).
“Also recorded” adds a separate entry of the source.

What was measured:
[1] = system: liver cells (AML-12 cells); experiment: Total antioxidant capacity in liver cells; type: cell-based; conditions: AML-12 liver cells, in the presence of hydrogen peroxide
Description: To that end, the inventors used endothelial cells (EOMA cells) and liver cells (AML-12 cells) in vitro and quantified various markers in response to exposure of the cells to environmental challenge in the presence and absence of DDA at low concentrations. Unless indicated otherwise, the DDA concentration in the in vitro experiments was 5 mcg per microliter. More specifically, the inventors measured p-H2AX protein levels as a marker for DNA damage, PGC-1α protein levels as a marker for mitochondrial biogenesis, NAMPT enzyme levels as a marker for potential for NAD+ production, and total antioxidant capacity as a marker of cellular health. In addition, the inventors also measured global SIRT activity as a gauge of activity for all SIRT enzymes, and in particular SIRT1 enzyme levels as markers for autophagy and various beneficial processes associated with a caloric restricted diet, and SIRT3 levels as markers for mitochondrial function and longevity.

[2] = system: primary human hepatocytes; experiment: In vitro palmitic acid stimulation, gene expression by quantitative real-time PCR; type: cell-based
Experimental: (§1) Total RNA from human primary hepatocytes was extracted using the RNeasy Plus Mini Kit according to the indications provided by the company. A small aliquot of total RNA obtained (3 μl) was subjected to qualitative and quantitative control by using the microdrop. The qualitative and quantitative assessment of the individual samples was determined using a dedicated software. The total RNA was reverse transcribed into cDNA by using iScript RT. SYBR Green gene expression assays were performed according to the manufacturer's instruction using the iQTMSYBR Green Supermix and the CFX96 Touch Real-Time PCR Detection System. For this purpose, the following pairs of primer were used: solute carrier family 13 member 5 (SLC13A5) (forward 5′ […] 3′ (SEQ ID NO:1) and reverse 5′ […] 3′ (SEQ ID NO:2)), Diacylglycerol O-Acyltransferase 1 (DGAT1) (forward 5′ […] 3′ (SEQ ID NO:3) and reverse 5′ […] 3′ (SEQ ID NO:4)), Fatty Acid Synthase (FASN) (forward 5′ […] 3′ (SEQ ID NO:5) and reverse 5′ […] 3′ (SEQ ID NO:6)), carnitine palmitoyltransferase 1A (CPT1A) (forward 5′ […] 3′ (SEQ ID NO:7) and reverse 5′ […] 3′ (SEQ ID NO:8)) and Acetyl-CoA carboxylase (ACC1) (forward 5′ […] 3′ (SEQ ID NO:9) and reverse 5′ […] 3′ (SEQ ID NO:10)). mRNA expression levels were normalized to B2-microglobulin (forward 5′[…] 3′ (SEQ ID NO:11); and reverse 5′[…] 3′ (SEQ ID NO:12)) and quantification of relative gene expression, presented as percentage of the relevant baseline, was calculated using the 2-ACT (comparative threshold) method.
Isolation of human primary hepatocytes: Tissue obtained during percutaneous liver biopsy, was diced (<3 mm) and washed in HBSS to remove excess blood. Tissue was then transferred to a tube containing pre-warmed EGTA buffer (HBSS, 0.5 mM EGTA, 0.5% fatty acid free bovine serum albumin (BSA)) and agitated (100 rpm) in a water bath with shaking bed for 10 min, 37° C. After three washes, to remove the remaining blood and EGTA, the tissue was placed in pre-warmed digestion buffer (HBSS, 0.05% collagenase IV, 0.5% fatty acid free BSA, 10 mM CaC12) and agitated (100 rpm) in a water bath with shaking bed for 30 min, 37° C. The digested tissue was filtered through 100 μm cell strainer while the remaining tissue was again digested in fresh digestion buffer (20). Cell suspensions were pooled and centrifuged at 80 g for 5 min, 4° C. and the supernatant discarded. Cells were grown until confluent and used for citrate uptake analysis.
At the end of the stimulation de novo lipogenesis, fatty acid beta-oxidation and SLC13A5 gene expression were assessed by Quantitative Real-Time PCR Analysis.

[3] = system: liver of rats; experiment: qReal time-PCR gene expression in the liver of rats from in vivo study 1 and 2; set-up: species or system Wistar rats
Experimental: Panels A and B. • Study 1: Twenty adult Wistar rats, aged 8-10 weeks, were included in the study. The rats were housed in individual cages at 22° C. with 12-h light cycles and had ad libitum access to food and water. Rats were fed a high fat high cholesterol diet (44% Carbohydrate, 14% Protein, 42% fat+0.2% Cholesterol) for 4 weeks in the presence or absence of 1% Dodecanedioic acid, sodium salt dissolved in the water (FIG. 25, Panel A). Body weight and food/water intake were monitored weekly. • Study 2: Twenty adult Wistar rats, aged 8-10 weeks, were included in the study. The rats were housed in individual cages at 22° C. with 12-h light cycles and had ad libitum access to food and water. Rats were fed a high fat-high cholesterol diet (44% Carbohydrate, 14% Protein, 42% fat+0.2% Cholesterol). After 9 weeks of diet, rats were randomly assigned to one of the following groups: 4 weeks of high fat-high cholesterol diet or 4 weeks of high fat-high cholesterol diet and 1% Dodecanedioic acid, sodium salt dissolved in the water (FIG. 25, Panel B). Body weight and food/water intake were monitored weekly.
as §1
C12 decrease de novo lipogenesis and an increase in fatty acid oxidation in vitro and in vivo: To test the hypothesis that C12 could affect de novo lipogenesis and fatty acid beta-oxidation, human primary hepatocytes were stimulated with palmitic acids (0.4 mM) in the presence or absence of C12 1% (v/w). […] Similar results were also observed in our in vivo experiments. […] Data from in vivo study 1 and 2 were pooled together.

[4] = primary human hepatocytes, C12 1% (v/w) with palmitic acid 0.4 mM, vs palmitic acid alone
[5] = in vivo study 1 and 2 pooled, vs control group
[6] = rats from in vivo study 1 and 2, vs control group

## O=C(O)CCCCCCCCCCC(=O)O [DDDA, dodecanedioic acid]
[1]; 6 hours, 5 mcg per microliter, p=0.001
  cellular total antioxidant capacity: maintains cellular total antioxidant capacity
[1]; 24 hours, same trend as 6 hours
  cellular total antioxidant capacity: did not reach a level of significance
[2]; human hepatocytes, C12 1% (v/w) with palmitic acid 0.4 mM, vs palmitic acid alone, listed as C12
  gene expression of citrate transporter SLC13A5: significant decrease; also recorded: reducing citrate transporter SLC13A5
[2]; palmitic acid 0.4 mM, C12 1%
  DNL in primary hepatocytes (figure legend): reduces
[2]; [4]
  ACC1 (de novo lipogenesis enzyme): significant reduction
  CPT1A (fatty acid beta-oxidation enzyme): significant increase
  DGAT (de novo lipogenesis enzyme): significant reduction
  FASN (de novo lipogenesis enzyme): significant reduction
[3]; [5]
  ACC1 (de novo lipogenesis enzyme) in liver: decrease
  CPT1A (fatty acid beta-oxidation enzyme) in liver: significant increase
  DGAT (de novo lipogenesis enzyme) in liver: decrease
  FASN (de novo lipogenesis enzyme) in liver: decrease
  gene expression of citrate transporter SLC13A5 in liver: decrease
[3]; [6]
  COLA1A gene expression in liver: decreased expression
  TGFβ gene expression in liver: decreased expression
  αSMA gene expression in liver: decreased expression
